Measured values reported in patent US6376426B1, “Herbicidal 3-(heterocycl-1-yl)-uracils” (BASF Aktiengesellschaft, priority 1999, dated 2002).

Assays:
Assay type in all cases: in vivo
Zea mays [1] = assay: Pre-emergence herbicidal test, ZEAMX; parameters: key to herbicidal effect (0-9 scale) ZEAMX / herbicidal rating ZEAMX: A rating 0 indicates growth as untreated control; a rating 9 indicates death; conditions: for herbicidal rating ZEAMX: PRE, 0-9 scale, 21 days after spraying
Method: (§1) To evaluate their herbicidal activity, compounds according to the invention are tested using a representative range of plants:
(§2) The pre-emergence tests involve spraying a liquid formulation of the compound onto the soil in which the seeds of the plant species mentioned above has recently been sown.
(§3) The soil used in the tests is a prepared horticultural loam. The formulations used in the tests are prepared from solutions of the test compounds in acetone containing 0.4% by weight of an alkylphenol/ethylene oxide condensate available under the trade mark TRITON X-155. […] In these tests untreated sown soil are used as controls.
(§4) The herbicidal effects of the test compounds are assessed visually twenty-one days after spraying the foliage and the soil and are recorded on a 0-9 scale. A rating 0 indicates growth as untreated control, a rating 9 indicates death. An increase of 1 unit on the linear scale approximates to a 10% increase in the level of effect.

Glycine max [2] = assay: Pre-emergence herbicidal test, GLXMA; parameters: key to herbicidal effect (0-9 scale) GLXMA / herbicidal rating GLXMA: A rating 0 indicates growth as untreated control; a rating 9 indicates death; conditions: for herbicidal rating GLXMA: PRE, 0-9 scale, 21 days after spraying
Method: as §1, §2, §3, §4

Setaria viridis [3] = assay: Pre-emergence herbicidal test, SETVI; parameters: key to herbicidal effect (0-9 scale) SETVI / herbicidal rating SETVI: A rating 0 indicates growth as untreated control; a rating 9 indicates death; conditions: PRE, 0-9 scale, 21 days after spraying
Method: as §1, §2, §3, §4

Echinochloa crus-galli [4] = assay: Pre-emergence herbicidal test, ECHCG; parameters: key: A rating 0 indicates growth as untreated control; a rating 9 indicates death; conditions: 0-9 scale, 21 days after spraying
Method: as §1, §2, §3, §4

Alopecurus myosuroides [5] = assay: Pre-emergence herbicidal test, ALOMY; parameters: key to herbicidal effect (0-9 scale) ALOMY / herbicidal rating ALOMY: A rating 0 indicates growth as untreated control; a rating 9 indicates death; conditions: for herbicidal rating ALOMY: PRE, 0-9 scale, 21 days after spraying
Method: as §1, §2, §3, §4

Ipomoea hederacea [6] = assay: Pre-emergence herbicidal test, IPOHE; parameters: key: A rating 0 indicates growth as untreated control; a rating 9 indicates death; conditions: 0-9 scale, 21 days after spraying
Method: as §1, §2, §3, §4

Galium aparine [7] = assay: Pre-emergence herbicidal test, GALAP; parameters: key to herbicidal effect (0-9 scale) GALAP / herbicidal rating GALAP: A rating 0 indicates growth as untreated control; a rating 9 indicates death; conditions: PRE, 0-9 scale, 21 days after spraying
Method: as §1, §2, §3, §4

Abutilon theophrasti [8] = assay: Pre-emergence herbicidal test, ABUTH; parameters: key to herbicidal effect (0-9 scale) ABUTH / herbicidal rating ABUTH: A rating 0 indicates growth as untreated control; a rating 9 indicates death; conditions: PRE, 0-9 scale, 21 days after spraying
Method: as §1, §2, §3, §4

Stellaria media [9] = assay: Pre-emergence herbicidal test, STEME; parameters: key to herbicidal effect (0-9 scale) STEME / herbicidal rating STEME: A rating 0 indicates growth as untreated control; a rating 9 indicates death; conditions: PRE, 0-9 scale, 21 days after spraying
Method: as §1, §2, §3, §4

Matricaria inodora [10] = assay: Pre-emergence herbicidal test, MATIN; parameters: key to herbicidal effect (0-9 scale) MATIN / herbicidal rating MATIN: A rating 0 indicates growth as untreated control; a rating 9 indicates death; conditions: PRE, 0-9 scale, 21 days after spraying
Method: as §1, §2, §3, §4

Zea mays [11] = assay: Post-emergence herbicidal test, ZEAMX; parameters: key: A rating 0 indicates growth as untreated control; a rating 9 indicates death; conditions: 0-9 scale, 21 days after spraying
Method: as §1
(§5) […] After spraying, the plants are placed on greenhouse benches and are cared for in the usual manner, commensurate with conventional greenhouse practices.
as §4

Glycine max [12] = assay: Post-emergence herbicidal test, GLXMA; parameters: key: A rating 0 indicates growth as untreated control; a rating 9 indicates death; conditions: 0-9 scale, 21 days after spraying
Method: as §1, §5, §4

Setaria viridis [13] = assay: Post-emergence herbicidal test, SETVI; parameters: key to herbicidal effect (0-9 scale) SETVI / herbicidal rating SETVI: A rating 0 indicates growth as untreated control; a rating 9 indicates death; conditions: POST, 0-9 scale, 21 days after spraying
Method: as §1, §5, §4

Echinochloa crus-galli [14] = assay: Post-emergence herbicidal test, ECHCG; parameters: key: A rating 0 indicates growth as untreated control; a rating 9 indicates death; conditions: 0-9 scale, 21 days after spraying
Method: as §1, §5, §4

Alopecurus myosuroides [15] = assay: Post-emergence herbicidal test, ALOMY; parameters: key: A rating 0 indicates growth as untreated control; a rating 9 indicates death; conditions: 0-9 scale, 21 days after spraying
Method: as §1, §5, §4

Ipomoea hederacea [16] = assay: Post-emergence herbicidal test, IPOHE; parameters: key to herbicidal effect (0-9 scale) IPOHE / herbicidal rating IPOHE: A rating 0 indicates growth as untreated control; a rating 9 indicates death; conditions: POST, 0-9 scale, 21 days after spraying
Method: as §1, §5, §4

Galium aparine [17] = assay: Post-emergence herbicidal test, GALAP; parameters: key to herbicidal effect (0-9 scale) GALAP / herbicidal rating GALAP: A rating 0 indicates growth as untreated control; a rating 9 indicates death; conditions: POST, 0-9 scale, 21 days after spraying
Method: as §1, §5, §4

Abutilon theophrasti [18] = assay: Post-emergence herbicidal test, ABUTH; parameters: key to herbicidal effect (0-9 scale) ABUTH / herbicidal rating ABUTH: A rating 0 indicates growth as untreated control; a rating 9 indicates death; conditions: POST, 0-9 scale, 21 days after spraying
Method: as §1, §5, §4

Stellaria media [19] = assay: Post-emergence herbicidal test, STEME; parameters: key to herbicidal effect (0-9 scale) STEME / herbicidal rating STEME: A rating 0 indicates growth as untreated control; a rating 9 indicates death; conditions: POST, 0-9 scale, 21 days after spraying
Method: as §1, §5, §4

Matricaria inodora [20] = assay: Post-emergence herbicidal test, MATIN; parameters: key to herbicidal effect (0-9 scale) MATIN / herbicidal rating MATIN: A rating 0 indicates growth as untreated control; a rating 9 indicates death; conditions: POST, 0-9 scale, 21 days after spraying
Method: as §1, §5, §4

[21] = tested on: representative range of plants; assay: Pre-emergence herbicidal test, summary over the plants tested; conditions: 100 g/ha
Method: as §1, §2, §3, §4

[22] = tested on: representative range of plants; assay: Post-emergence herbicidal test, summary over the plants tested
Method: as §1, §5, §4

[23] = tested on: representative range of plants; assay: Herbicidal activity, pre- and post-emergence, overall; conditions: both in pre- and post-emergence
Method: as §1, §2
The soil used in the tests is a prepared horticultural loam. The formulations used in the tests are prepared from solutions of the test compounds in acetone containing 0.4% by weight of an alkylphenol/ethylene oxide condensate available under the trade mark TRITON X-155. These acetone solutions are diluted with water and the resulting formulations applied at dosage levels corresponding to 1000 g and 250 g/ha of active material per hectare in a volume equivalent to 900 litres per hectare. In these tests untreated sown soil are used as controls.
These acetone solutions are diluted with water and the resulting formulations applied at dosage levels equivalent to about 1000, 800, 400, 250 or 100 g/ha per hectare of test compound per pot. After spraying, the plants are placed on greenhouse benches and are cared for in the usual manner, commensurate with conventional greenhouse practices.
as §4

## Cn1c(C(F)(F)F)cc(=O)n(-n2ncc3c(Cl)cccc32)c1=O [Example 168, 3-(4-Chloro-1-indazol-1-yl)-1-methyl-6trifluoromethylpyrimidine-2,4-dione]
Zea mays [1]; 12.5 g/ha
  herbicidal rating ZEAMX: 0
Zea mays [1]; 25 g/ha
  herbicidal rating ZEAMX: 0
Zea mays [1]; 100 g/ha
  herbicidal rating ZEAMX: 1
Zea mays [1]; pre-emergence, 100 g/ha
  selectivity in maize: Surprisingly good selectivity
Glycine max [2]; 12.5 g/ha
  herbicidal rating GLXMA: 0
Glycine max [2]; 25 g/ha
  herbicidal rating GLXMA: 0
Glycine max [2]; 100 g/ha
  herbicidal rating GLXMA: 0
Glycine max [2]; pre-emergence, 100 g/ha
  selectivity in soy beans: Surprisingly good selectivity
Setaria viridis [3]; 12.5 g/ha
  herbicidal rating SETVI: 2
Setaria viridis [3]; 25 g/ha
  herbicidal rating SETVI: 5
Setaria viridis [3]; 100 g/ha
  herbicidal rating SETVI: 9
Echinochloa crus-galli [4]; 12.5 g/ha
  herbicidal rating ECHCG: 0
Echinochloa crus-galli [4]; 25 g/ha
  herbicidal rating ECHCG: 1
Echinochloa crus-galli [4]; 100 g/ha
  herbicidal rating ECHCG: 6
Alopecurus myosuroides [5]; 12.5 g/ha
  herbicidal rating ALOMY: 0
Alopecurus myosuroides [5]; 25 g/ha
  herbicidal rating ALOMY: 0
Alopecurus myosuroides [5]; 100 g/ha
  herbicidal rating ALOMY: 2
Alopecurus myosuroides [5]; pre-emergence, 100 g/ha
  control of Alopecurus: well controlled
Ipomoea hederacea [6]; 12.5 g/ha
  herbicidal rating IPOHE: 0
Ipomoea hederacea [6]; 25 g/ha
  herbicidal rating IPOHE: 3
Ipomoea hederacea [6]; 100 g/ha
  herbicidal rating IPOHE: 7
Galium aparine [7]; 12.5 g/ha
  herbicidal rating GALAP: 3
Galium aparine [7]; 25 g/ha
  herbicidal rating GALAP: 6
Galium aparine [7]; 100 g/ha
  herbicidal rating GALAP: 9
Abutilon theophrasti [8]; 12.5 g/ha
  herbicidal rating ABUTH: 9
Abutilon theophrasti [8]; 25 g/ha
  herbicidal rating ABUTH: 9
Abutilon theophrasti [8]; 100 g/ha
  herbicidal rating ABUTH: 9
Stellaria media [9]; 12.5 g/ha
  herbicidal rating STEME: 1
Stellaria media [9]; 25 g/ha
  herbicidal rating STEME: 3
Stellaria media [9]; 100 g/ha
  herbicidal rating STEME: 9
Matricaria inodora [10]; 12.5 g/ha
  herbicidal rating MATIN: 8
Matricaria inodora [10]; 25 g/ha
  herbicidal rating MATIN: 8
Matricaria inodora [10]; 100 g/ha
  herbicidal rating MATIN: 9
Zea mays [11]; 12.5 g/ha
  herbicidal rating ZEAMX: 0
Zea mays [11]; 25 g/ha
  herbicidal rating ZEAMX: 1
Zea mays [11]; 100 g/ha
  herbicidal rating ZEAMX: 3
Glycine max [12]; 12.5 g/ha
  herbicidal rating GLXMA: 5
Glycine max [12]; 25 g/ha
  herbicidal rating GLXMA: 6
Glycine max [12]; 100 g/ha
  herbicidal rating GLXMA: 9
Setaria viridis [13]; 12.5 g/ha
  herbicidal rating SETVI: 6
Setaria viridis [13]; 25 g/ha
  herbicidal rating SETVI: 7
Setaria viridis [13]; 100 g/ha
  herbicidal rating SETVI: 9
Echinochloa crus-galli [14]; 12.5 g/ha
  herbicidal rating ECHCG: 0
Echinochloa crus-galli [14]; 25 g/ha
  herbicidal rating ECHCG: 2
Echinochloa crus-galli [14]; 100 g/ha
  herbicidal rating ECHCG: 8
Alopecurus myosuroides [15]; 12.5 g/ha
  herbicidal rating ALOMY: 0
Alopecurus myosuroides [15]; 25 g/ha
  herbicidal rating ALOMY: 1
Alopecurus myosuroides [15]; 100 g/ha
  herbicidal rating ALOMY: 3
Ipomoea hederacea [16]; 12.5 g/ha
  herbicidal rating IPOHE: 9
Ipomoea hederacea [16]; 25 g/ha
  herbicidal rating IPOHE: 9
Ipomoea hederacea [16]; 100 g/ha
  herbicidal rating IPOHE: 9
Galium aparine [17]; 12.5 g/ha
  herbicidal rating GALAP: 9
Galium aparine [17]; 25 g/ha
  herbicidal rating GALAP: 9
Galium aparine [17]; 100 g/ha
  herbicidal rating GALAP: 9
Abutilon theophrasti [18]; 12.5 g/ha
  herbicidal rating ABUTH: 9
Abutilon theophrasti [18]; 25 g/ha
  herbicidal rating ABUTH: 9
Abutilon theophrasti [18]; 100 g/ha
  herbicidal rating ABUTH: 9
Stellaria media [19]; 12.5 g/ha
  herbicidal rating STEME: 7
Stellaria media [19]; 25 g/ha
  herbicidal rating STEME: 7
Stellaria media [19]; 100 g/ha
  herbicidal rating STEME: 9
Matricaria inodora [20]; 12.5 g/ha
  herbicidal rating MATIN: 8
Matricaria inodora [20]; 25 g/ha
  herbicidal rating MATIN: 9
Matricaria inodora [20]; 100 g/ha
  herbicidal rating MATIN: 9
[21]
  control of the weeds: four out of five broadleaf weeds were well controlled
[22]; 12.5 g/ha
  control of broadleaf weeds: all broadleaf weeds were still well controlled
[22]; 100 g/ha
  control of the weeds: good cross spectrum control on both broadleaf weeds and grasses except Alopecurus and Echinochloa
[23]
  herbicidal performance: good performance
